According to patent EP4623912A1, “A METHOD FOR DEFATTENING A STEATOTIC LIVER EX VIVO” (ETH Zurich, priority 2024, dated 2025):

Tests used:
[1] = Precipitation of DMSO solution on mixing with water; type: physicochemical; settings: dissolved in DMSO, not circulated
[2] = system: mouse model with organ engraftment; settings: in vivo; cited from earlier work
human liver graft = system: human liver graft
Description: A human liver graft was perfused for 8 days, after being discarded from all Swiss transplant centers. Use of discarded grafts was approved by local authorities (Kantonale Ethik Kommission Zürich KEK Nr. 2017-000412). […] The liver was procured with a total ischemia time of 40 min after circulatory death of the donor. It was flushed with IGL-1 solution and perfused for 2 h with Belzer MPS at 8°C. The infrahepatic vena cava was closed with a suture and the hepatic artery, portal vein, suprahepatic vena cava and common bile duct were cannulated with steel cannulas. The graft was subsequently perfused with whole blood and a custom built normothermic perfusion machine (Eshmuminov,D. et al, Nat Biotechnol 38, (2020)). Hepatic arterial pressure was controlled to be 80/50 mmHg, allowing for an average flow of 0.25 L/min. A vasodilator, epoprostenol, was automatically infused to keep arterial flow stable. Oxygenation was automatically controlled with a setpoint partial pressure of oxygen equal to 12 kPa. Portal venous flow was controlled to be at 1 L/min, resulting in a pressure of 2 mmHg on average. Further, oxygenation of portal blood was automatically regulated to achieve 65% saturation in the vena cava. Use of an electric pinch valve further allowed for pressure regulation in the vena cava, keeping a constant pressure of 0 mmHg. Glucose levels were automatically controlled by using a real-time glucose sensor (CCIT) and automated insulin infusions, keeping glucose levels at 7 mmol/L from the second day of perfusion onwards. A dialysis bypass was used to clear waste metabolites and control haematocrit levels by using a fixed dialysate influx rate of 200 mL/h and an automatically controlled outflux. […] After 8 days of perfusion, the liver weight decreased to 1507g (without gallbladder) and was sent for pathological examination.
Perfusate was mixed with 6 units of red blood cell concentrate (A+), 5 units of fresh frozen […], one unit of thrombocytes and 200 mL of 20% human albumin (CSL Behring). An initial bolus of 2.25 g Tazobactam and 500 mg Methylprednisolone was administered after priming. During the perfusion, 1000 U of heparin were infused per hour. Further, 2.25 g of Tazobactam, 3.36 g of ursodesoxycholic acid and 500 mg of methylprednisolone were continuously infused per day. UCB9608 was administered as a daily bolus by adding 300 µL of 50 mM solution directly to the blood reservoir, targeting a final concentration in the perfusate of 10 µM. On the first day, a larger bolus of 600 µL was given.
Adipose depots, liver pieces, differentiated iBAs, HepG2, HEK293T and HEK293-AAV cell types were homogenized in RIPA buffer (50 mM Tris-HCl pH 7.4, 150 mM NaCl, 2 mM EDTA, 1.0% Triton X100, 0.5% sodium deoxycholate) with protease inhibitors (Complete, Roche) and phosphatase inhibitors (Halt phosphatase inhibitor cocktail, ThermoFisher). The homogenates were centrifuged at 12,000×g for 10 min at 4°C to remove debris and collect whole cell extract (WCE). The concentration of WCE was determined by DC Protein Assay (Bio-Rad). After boiling the sample with Lämmeli buffer at 95°C for 5 min, equal amount of proteins was loaded and separated on 12% SDS-PAGE. […]

ATGL = ATGL response to glucose deprivation after UCB9608-mediated depletion of Golgi Ptdlns4P; type: cell-based; settings: Golgi Ptdlns4P depleted by UCB9608
C57BL/6N male mice = experiment: Indirect calorimetry in HFD-fed mice; type: in vivo, mouse; settings: HFD mixed with UCB9608 (5 mg/kg) 3 weeks, vs DMSO
Description: 8-10 weeks old C57BL/6N male mice were fed on HFD mixing with DMSO or UCB9608 (5 mg/kg) for 3 weeks before indirect calorimetry measurements were performed with Phenomaster (TSE systems) according to the manufacturer's instructions. Animals were single caged and adapted to the metabolic cage for 48h prior to metabolic recording. The energy expenditure between both groups was analyzed via ANCOVA method and RER was analyzed via two-way ANOVA method.

[3] = biopsies from both lobes, unchanged in the two control grafts

Compound: COc1ccc(NC(=O)N2CCN(c3nc(N)nc4c3cnn4C)[C@@H](C)C2)c(C)c1 [UCB9608]
- behaviour of DMSO solution mixed with water [1]: precipitated
- efficacy in the mouse model with organ engraftment [2]: effective
- cell viability (ATP analysis and histology) (human liver graft): remained until the end of perfusion
- time liver function was well preserved (human liver graft): at least 6 days
- liver weight after perfusion (human liver graft; after 8 days, without gallbladder, initial weight 2740g with gall bladder): 1507 g
- macrovesicular steatosis after perfusion (human liver graft; after 8 days, 15% before perfusion, pathological examination): less than 5%
- ATGL levels in liver biopsies (human liver graft; [3]): substantially elevated
- TG deposition in liver biopsies (human liver graft; [3]): reduced
- non-esterified fatty acids (NEFAs) from dialysate (human liver graft; during perfusion, UCB9608 daily, target 10 µM): detected
- ATGL response to glucose deprivation (ATGL): loss of ATGL regulation
- energy expenditure (C57BL/6N male mice): higher
